Results as given in US20260337225A1, “SMALL PEPTIDE AND USE THEREOF IN MUCOSAL REPAIR” (FORREST BIO-PHARM (SHENZHEN) CO., LTD., priority 2022, published 2026).
“And” between values parts separate entries of the source, which are not always exact repeats. Equal values may be shown once. No end group written: not given here.

How the values were obtained:
[1] = tested on: mouse model of acute gastric ulcer; assay: Mouse model of acute gastric ulcer (anhydrous ethanol); assay type: in vivo
Protocol: In this embodiment, the function of the small peptides obtained in Embodiment 2 was validated using a mouse model of acute gastric ulcer.
Control group (model group): A mouse mode of acute gastric ulcer was constructed using anhydrous ethanol (0.1 mL/10 g) (referring to the literature of Study on Action of kangfuxin Solution on Experimental Gastric ulcer [J]. Chinese Traditional Patent Medicine, 2001, 23(2): 122-124. DOI: 10.3969/j.issn.1001-1528.). After modeling, the mice were administered with an equal volume of saline.
Blank group: The mice were administered with an equal volume of saline.
Drug treatment groups: A mouse mode of acute gastric ulcer was constructed by treating the mouse with anhydrous ethanol (0.1 mL/10 g). At 2 h, 12 h, and 22 h after modeling, the mice were administered with the rice polypeptide mixture (50 mg/kg) as the mixture group, small peptide P1 (0.5 mg/kg) as the P1 group, and small peptide P2 (0.5 mg/kg) as the P2 group, respectively.
Each group consisted of 8 mice. After 24 h of modeling, the mice were sacrificed, to extract the gastric tissue, and observe changes in bleeding points and ulcer area via gastric tissue dissection.

[2] = tested on: rat model of chronic gastric ulcer; assay: Rat model of chronic gastric ulcer (anhydrous ethanol followed by aspirin); assay type: in vivo
Protocol: The function of the small peptides obtained in Embodiment 2 was validated in the present embodiment by using a rat model of chronic gastric ulcer.
Control group (model group): A rat model of chronic gastric ulcer model was constructed by intragastric administration of anhydrous ethanol (1 mL/200 g), followed by intragastric administration of 200 mg/kg aspirin 2 h later. The rats were administered with aspirin once daily for 4 days. At day 5, the rats were administered with an equal volume of saline.
Blank group: The rats were administered with an equal volume of saline.
Drug treatment groups: A rat model of chronic gastric ulcer was constructed as above-mentioned. At day 5, the rats were respectively administered with the rice polypeptide mixture (50 mg/kg), small peptide P1 (0.5 mg/kg), or small peptide P2 (0.5 mg/kg) twice daily for 3 days. On day 4, the rats were sacrificed and their gastric necropsy was performed.
Positive control group (omeprazole 2.6 mg/kg): A rat model of chronic gastric ulcer was constructed as above. At day 5, the rats were administered with omeprazole (2.6 mg/kg) twice daily for 3 days. On day 4, The rats were sacrificed and their gastric necropsy was performed.
Each group consisted of 10 rats. After 24 h of modeling, the rats were sacrificed to extract the gastric tissue, for measuring gastric pH, and observing changes in ulcer area via gastric tissue dissection. Liver and kidney tissues were collected for pathological section observation to assess drug safety.

[3] = tested on: normal human hepatic parenchymal L-02 cells; assay: Hepatotoxicity: cytotoxicity in L-02 cells by CCK-8 assay; assay type: cell-based; conditions: 10-200 μg/mL, 24 h, in words
Protocol: Referring to the method from a literature (Determination of emodin in L-02 cells and cell culture media with liquid chromatography-mass spectrometry: Application to a cellular toxicokinetic study. J Pharm Biomed Anal. 2012; 71:71-78), normal human hepatic parenchymal L-02 cells (obtained from Shanghai Cell Bank) were seeded into 96-well plates and treated with small peptides P1 and P2 at concentrations of 0 μg/mL, 10 μg/mL, 20 μg/mL, 50 μg/mL, 100 μg/mL, and 200 μg/mL. After 24-hour stimulation, the cytotoxicity was assessed by Cell Counting Kit-8 (CCK-8) assay.

[4] = tested on: normal human kidney-2 cells (HK-02, HK-2); assay: Nephrotoxicity: cytotoxicity in HK-2 cells by CCK-8 assay; assay type: cell-based; conditions: 10-200 μg/mL, 24 h, in words
Protocol: Referring to the method from a literature (Sinomenine improve diabetic nephropathy by inhibiting fibrosis and regulating the JAK2/STAT3/SOCS1 pathway in streptozotocin-induced diabetic rats. Life Sci. 2021; 265:118855), normal human kidney-2 cells (HK-02, HK-2) (Shanghai Cell Bank) were seeded into 96-well plates and administered with small peptides P1 and P2 at concentrations of 0 μg/mL, 10 μg/mL, 20 μg/mL, 50 μg/mL, 100 μg/mL, and 200 μg/mL. After 24-hour stimulation, the cytotoxicity was assessed by Cell Counting Kit-8 (CCK-8) assay.

[5] = Animal safety observation: rat body weight; assay type: in vivo; conditions: for Rat body weight: 1000 mg/kg daily, intragastric gavage, individual rats, Rat 1-7 = c1-c7, 1000 mg/kg
Protocol: (§1) The rats were administered with the small peptides via intragastric gavage at doses of 500 mg/kg and 1000 mg/kg daily for 14 days. Changes in body weight were recorded. On day 14, the rats were sacrificed to measure alaninetransaminase (ALT) activity and blood urea nitrogen (BUN) levels in rat serum for assessing whether there was hepatotoxicity and nephrotoxicity in rats.

[6] = tested on: Rat liver; assay: Animal safety observation: rat liver injury (serum alaninetransaminase activity); assay type: in vivo; conditions: 14 days; for Alaninetransaminase Activity, Average / Alaninetransaminase Activity: intragastric gavage, rat serum; for Alaninetransaminase Activity, Average: average of 6 rats, saline average P1 35.83333, P2 30.83333; for Alaninetransaminase Activity: individual rats (Rat 1-6)
Protocol: as §1

[7] = tested on: Rat kidney; assay: Animal safety observation: rat kidney injury (serum blood urea nitrogen levels); assay type: in vivo; conditions: 14 days; for Blood Urea Nitrogen Levels: intragastric gavage, rat serum, individual rats (Rat 1-6)
Protocol: as §1

[8] = tested on: mucosal repair; assay: Screening of active monomers for mucosal repair effects; conditions: repeated experiments and screening; in words
Excerpt: The inventors observed the active monomers in the polypeptide mixture of Polimi-1 rice variety by mass spectrometry analysis of the polypeptides from various ordinary rice varieties and Polimi-1 rice variety. The small peptides identical to ordinary rice varieties and with high levels in ordinary rice varieties were excluded by a method of exclusion. Finally, the small peptides with higher levels in Polimi-1 rice variety and lower levels in other ordinary rice varieties were selected for further study, as well as those with higher levels in Polimi-1 rice variety and absent in other ordinary rice varieties. Since peptides with molecular weights below 1500 Daltons were extracted from the mixed polypeptide mixture previously obtained, other peptides above this threshold were excluded.

[9] = 500 and 1000 mg/kg daily, rats, in words

Sequence: GASRIIGVDL [Small peptide P1, GASRIIGVDL]
- Ulcer index ([1]; 0.5 mg/kg at 2 h, 12 h and 22 h after modeling, 8 mice, ratio of ulcer area to gastric mucosal tissue area, Control group 58.3 ± 10.1): 8.2 ± 3.1%
- Ulcer inhibition rate ([1]; 0.5 mg/kg at 2 h, 12 h and 22 h after modeling, percentage reduction in ulcer area compared to the Control group): 85.9%
- result compared to the mixture group ([1]; 0.5 mg/kg versus mixture 50 mg/kg, in words): better results than the mixture in larger dose
- anti-ulcer effects ([1]; 0.5 mg/kg, in words): excellent anti-ulcer effects
- Ulcer index ([2]; 0.5 mg/kg twice daily for 3 days, 10 rats, ratio of ulcer area to gastric mucosal tissue area, Control group 40.5 ± 5.3): 5.8 ± 2.5%
- Ulcer inhibition rate ([2]; 0.5 mg/kg twice daily for 3 days, percentage reduction in ulcer area compared to the Control group): 85.7%
- anti-ulcer effects ([2]; P1, P2 0.5 mg/kg, mixture 50 mg/kg, in words): exhibit anti-ulcer effects
- P versus Positive control group ([2]; anti-ulcer effects compared to omeprazole 2.6 mg/kg, P1, P2 0.5 mg/kg, mixture 50 mg/kg): > 0.05
- viability of normal human liver cells L-02 [3]: no effect
- hepatotoxicity ([3]; L-02 cells): no hepatotoxicity
- viability of normal human kidney cells HK-02 (HK-2) [4]: no effect
- nephrotoxicity ([4]; HK-2 cells): no nephrotoxicity
- Rat body weight ([5]; Day 1): 210 g and 214 g and 218 g and 217 g and 216 g (2×) and 213 g
- Rat body weight ([5]; Day 2): 212 g and 215 g (2×) and 219 g and 220 g and 222 g and 217 g
- Rat body weight ([5]; Day 3): 212 g and 216 g and 220 g and 221 g and 224 g and 209 g and 218 g
- Rat body weight ([5]; Day 4): 214 g and 218 g
- Rat body weight ([5]; Day 5): 215 g and 220 g (2×) and 224 g and 228 g (2×) and 225 g
- Rat body weight ([5]; Day 6): 215 g and 227 g and 224 g and 230 g and 229 g and 223 g and 228 g
- Rat body weight ([5]; Day 7): 216 g and 228 g and 229 g (2×) and 236 g and 231 g and 224 g
- Rat body weight ([5]; Day 8): 218 g and 229 g and 232 g and 235 g and 233 g and 228 g and 231 g
- Rat body weight ([5]; Day 9): 220 g and 229 g and 234 g (2×) and 238 g and 233 g and 230 g
- Rat body weight ([5]; Day 10): 225 g and 231 g and 237 g and 239 g and 238 g and 234 g and 236 g
- Rat body weight ([5]; Day 11): 226 g and 232 g and 238 g and 241 g (2×) and 237 g and 239 g
- Rat body weight ([5]; Day 12): 227 g and 233 g and 238 g and 243 g (2×) and 244 g and 239 g
- Rat body weight ([5]; Day 13): 228 g and 235 g and 239 g and 244 g (2×) and 248 g and 240 g
- Rat body weight ([5]; Day 14): 230 g and 237 g and 240 g and 247 g and 249 g and 243 g (2×)
- Rat body weight ([5]; Day 15): 235 g and 238 g and 242 g and 248 g and 250 g and 245 g (2×)
- effects on rat body weight ([5]; daily intragastric gavage for 14 days, in words): minimal effects
- Alaninetransaminase Activity, Average ([6]; 500 mg/kg daily): 27 IU/L
- Alaninetransaminase Activity ([6]; 500 mg/kg daily): 35 IU/L and 44 IU/L and 20 IU/L and 15 IU/L and 21 IU/L and 27 IU/L
- Alaninetransaminase Activity, Average ([6]; 1000 mg/kg daily): 39.83 IU/L
- Alaninetransaminase Activity ([6]; 1000 mg/kg daily): 32 IU/L and 39 IU/L and 50 IU/L and 27 IU/L and 47 IU/L and 44 IU/L
- hepatotoxicity [6, 9]: without hepatotoxicity
- Blood Urea Nitrogen Levels ([7]; 500 mg/kg daily): 25 mg/dL and 39 mg/dL and 29 mg/dL and 33 mg/dL and 36 mg/dL and 37 mg/dL
- Blood Urea Nitrogen Levels ([7]; 1000 mg/kg daily): 28 mg/dL and 30 mg/dL (2×) and 32 mg/dL and 36 mg/dL and 34 mg/dL
- nephrotoxicity [7, 9]: without hepatotoxicity and nephrotoxicity
- mucosal repair effects [8]: found to have mucosal repair effects
